According to patent US12344598B2, “Bis(diazirine) derivatives as photo-crosslinker for treating corneal ectatic disorders” (Avedro, Inc., priority 2019, dated 2025):
Marks after values point to notes of the source that are not given here.

Key:
[1] = tested on: cornea; experiment: Porcine Eye Corneal Stiffening Assay; conditions: UVA 9 mm circle, 365 nm, 30 mW/cm^2, CW, 8.1 min, 15 J, 21% O2, 37.0° C., untreated cornea = 10.1
Description: Porcine whole globes in saline at 4° C. were warmed to room temperature. The eyes were either immediately placed into custom movable eye holders in a horizontal position with the cornea facing upward or were first de-epithelialized with a dulled scalpel blade before being placed in the holder. The eye holders were then positioned inside an enclosed chamber that allows for the control of atmosphere, temperature and humidity (typically a water bath at 37.0° C.). A solution of test compound held in place by a small rubber O-ring on the center of the cornea is then allowed to soak into the cornea surface of the test eye. After a set soaking time (typically 10 minutes) the O-ring is removed and any excess test solution washed away with saline. A specific pattern of UVA light at 365 nm is administered to the test eye cornea over a desired dosing period. A corneal flap of desired thickness (typically 200 μm is then excised from the eyes using a femtosecond laser (Zeimer, LDV1). The corneal flap is placed in saline at ambient temperature for 20 minutes and then mounted onto a biaxial extensiometer (CellScale Biotester5000, Waterloo, ON), using biorake attachments (5 tines spanning a width of 3.5 mm). The corneal flap is stretched at a constant rate of 4 μm/s in saline at 37° C. until sample failure. The maximum slope of the force vs distance curve is calculated and compared to that obtained from an untreated cornea.
The following notes provide further clarification regarding certain steps in the assay: • (1) A solution of the test compound (typically 0.22% w/v in saline) is held in place by a small rubber O-ring on the center of the cornea is then allowed to soak into the cornea surface of the test eye. After a set soaking time of 5-30 minutes (typically 10 minutes) the O-ring is removed and any excess test solution washed away with saline. • (2) A corneal flap of desired thickness and diameter (typically 200 μm thick by 8 mm diameter) is then excised from the eyes using a femtosecond laser (Zeimer, LDV1). The corneal flap is either placed in saline at ambient temperature for 20 minutes and then mounted in saline onto a biaxial extensiometer (CellScale Biotester5000, Waterloo, ON) or mounted directly onto the tester in 5% Dextran T500/saline. • (3) Biorake attachments (5 tines spanning a width of 3.5 mm) are used to hold the flap as it is stretched at 37° C. and a constant rate of 4 μm/s in both X (5 N load cell) and Y (10 N load cell) directions simultaneously. • (4) The maximum slope of the force vs distance curve corresponds to the stiffening value. It is compared to that obtained from an untreated cornea.

[2] = tested on: cornea; experiment: Porcine Eye Corneal Flattening Assay; conditions: overall change in keratometry (Km) of central 3 mm zone; UVA 4 mm circle, 365 nm, 30 mW/cm^2, CW, 8.1 min, 15 J total dose, normal (21% O2) atmosphere, 37.0° C.
Description: Porcine whole globes in saline at 4° C. were warmed to room temperature. The corneas were then de-epithelialized with a dulled scalpel blade and the eyes placed into custom movable eye holders in a horizontal position with the cornea facing upward. The eye holders were then positioned inside an enclosed chamber that allows for the control of atmosphere, temperature and humidity (typically a water bath at 37.0° C.). IOP is maintained at a constant pressure by the insertion of a blood bank buffered saline line from an IV bag at a standard height inserted into each eye via a syringe needle. 5% Dextran T500 in blood bank buffered saline is dropped onto the surface of the cornea of each eye every 90 sec for 2 hours to allow the eyes to stabilize. […] The test eye is then orientated in a vertical position and the pre-treatment surface keratometry of the cornea measured using a Pentacam® HR device fine cornea 100 scan. […] After a further 1.5 hours during which the 5% dextran drops are resumed the eye is orientated back to the vertical position and the post-treatment surface keratometry of the cornea measured using a Pentacam® HR device fine cornea 100 scan as before. The difference map between the pre and post treatment corneal images is obtained and the overall change in keratometry (Km) of the central 3 mm zone recorded as a change in diopters. […]

[3] = eyes were not de-epithelialized prior to treatment
[4] = maximum slope of force vs distance curve of corneal flap

| SMILES | Max slope [1, 3] | Refractive Change (D) [2] [D] | Max slope [1, 4] |
| --- | --- | --- | --- |
| CC1(CCC(=O)N(CCC2(C)N=N2)[C@@H]2CCNC2)N=N1 [Example 23] | 10.68^# |  |  |
| CC1(CCNCCC(=O)N[C@@H](CCCCNC(=N)N)C(=O)NCCC2(C)N=N2)N=N1 [Example 10] | 10.14^# | −0.64 |  |
| CC1(CCC(=O)N(CCC2(C)N=N2)CC(=O)O)N=N1 [Example 14] | 10.5 |  | 10.66 |
| CC1(CCN(CCC2(C)N=N2)CC(=O)O)N=N1 [Example 13] |  |  | 12.38 |
| CC1(CCNCC(=O)NCCC2(C)N=N2)N=N1 [Example 1] |  | −0.32 | 11.28 |
| CC1(CCNCCC(=O)N[C@@H](CC(=O)O)C(=O)OCCC2(C)N=N2)N=N1 [Example 6] | 10.88^# |  |  |
| CC1(CCNCC(=O)N[C@@H](CC(=O)O)C(=O)NCCC2(C)N=N2)N=N1 [Example 17] |  |  | 10.13 |
